This is an account of results in patent US6207655A, “Bis-phosphonate confugates with alkylating moieties having antitumor activity” (Novuspharma S.p.A., priority 1997, dated 2001).

The subject of series [1] is murine breast carcinoma Walker 256/B. The series is described as follows: antitumor activity in vivo against Walker 256/B implanted intratibia (TWI%). The conditions noted are these: it/iv, days 1, 4, 7; for TWI % (tumor weight inhibition %): measured day 14; for Tox: Walker 256/B. The arrangement: species or system murine tumor; male rats CD1. The source says:
The compounds of the invention have been tested "in vivo" against the murine breast carcinoma Walker 256/B implanted intratibia (it). After inoculation into the bone marrow cavity of the tibia, this tumor grows inside the bone causing osteolytic lesions, paraneoplastic hypercalcaemia and by invading the surrounding tissues it forms a measurable tumor mass. It is therefore possible to determine both the antitumor activity on the extraosseous tumor and the anti-osteolytic effect (Cancer, 72(1), 91 (1993)).
The Walker 256/B tumor was provided by NCI Frederick Cancer Facility and was maintained in male rats CD1 by means of subcutaneous transplantation of tumor fragments of about 1 cm diameter every 10 days.
To perform the experiment, each rat was injected it with 2.5×10^6tumor cells; all the animals were anesthetized with a mixture of 10 mg/kg of Ketalar (Park-Davis) and 5 mg/kg of Rompun (Bayer). After implantation inside the tibia, the tumor grows causing osteolytic lesions associated with an increased activity of the osteoclasts. To obtain an injectable cell suspension, the tumor fragments were decomposed by means of enzymatic digestion with type IV collagenases (Sigma) at a concentration of 400 U/ml for 20 minutes at 37° C.
The compounds of the invention have been administered i.v. at days 1, 4 and 7 after the tumor transplantation. The extraosseous tumor mass has been measured at day 14 after tumor transplantation. The antitumor activity was determined as TWI% (tumor weight inhibition %) calculated according to the following formula:
TWI%=(100-TW meantreated animals /TW meancontrols)×100
wherein the TW for each animal is given by the formula: […]
in which a and b are respectively the maximum and minimum diameter of the tumor mass, expressed in mm.

Series [2] concerns human multiple myeloma HS-Sultan cells. Kind of series: experimental model of human multiple myeloma HS-Sultan, mean survival time. Format: in vivo, human cells in SCID rats. The conditions noted are these: iv/iv, days +15, 18, 21; for TMS (MST = Mean Survival Time in days from the tumor inoculation): controls: MST 33-37; for Tox: HS-Sultan. As for the experimental part: (§1) The experiment is performed by inoculating intravenously (i.v.) the human multiple myeloma HS-Sultan cells in SCID rats (immunodeficient rats) at day 0, followed by treatment i.v. with a compound of the invention at days 15, 18 and 21.
The activity of the compounds of the invention was evaluated in relationship with the following parameters:
Mean Survival Time (MST) in comparison with the not treated rats (which have a mean survival time of 30 days after tumor inoculation);

For series [3] the test system is unchanged. The series is described as follows: histopathological examination of tumor infiltration in the human multiple myeloma model. The conditions noted are these: for tumor infiltration score: 38 days from the treatment; for effect on the tumor infiltration (in words): human multiple myeloma model. The arrangement: key to tumor infiltration score: -: absence of infiltration; +: slight infiltration; ++: middle to high infiltration. Format: in vivo, human cells in SCID rats. As for the experimental part:
as §1
evaluation of histological parameters (bone marrow invasion and degree of osteolytic lesions).

A further series has as its system multiple myeloma. Particulars: background statement; cited from earlier work.

Regarding `O=C(C=C(C(=O)O)C(P(=O)(O)O)P(=O)(O)O)NC(Cc1ccc(N(CCCl)CCCl)cc1)C(=O)O` (stereo not drawn) [compound (B)], the “TWI % (tumor weight inhibition %)” value in series [1] (20 mg/kg) is recorded as 89%. The Tox in series [1] (20 mg/kg) is listed as 0/8; in series [2] (60 mg/kg), 1/6. Moreover, in series [2] (60 mg/kg), the “TMS (MST = Mean Survival Time in days from the tumor inoculation)” value is recorded as 70 days. The tumor infiltration score result was “-” in series [3] (Backbone (soft tissues), (B) oO mg/kg); “-” in series [3] (Backbone, (B) oO mg/kg); “-” in series [3] (Hind limbs (soft tissues), (B) oO mg/kg); “-” in series [3] (Hind limbs, (B) oO mg/kg); “+” in series [3] (Kidneys, (B) oO mg/kg); “-” in series [3] (Sternum, (B) oO mg/kg). In addition, the “effect on the tumor infiltration (in words)” value in series [3] is given as “selective inhibitory effect on the tumor infiltration”.
For `N[C@@H](Cc1ccc(N(CCCl)CCCl)cc1)C(=O)O` [melphalan], the “TWI % (tumor weight inhibition %)” value in series [1] (2.8 mg/kg) was determined as 71%. Besides, the Tox in series [1] (2.8 mg/kg) is 11/144; in series [2] (6 mg/kg), 1/5. The “TMS (MST = Mean Survival Time in days from the tumor inoculation)” value in series [2] (6 mg/kg) is on record as 59 days. Also, the tumor infiltration score entry in series [3] (Backbone (soft tissues), melfalan 6 mg/kg) is reported as “-”; in series [3] (Backbone, melfalan 6 mg/kg), “+”; in series [3] (Hind limbs (soft tissues), melfalan 6 mg/kg), “-”; in series [3] (Hind limbs, melfalan 6 mg/kg) it was “+”; in series [3] (Kidneys, melfalan 6 mg/kg), “-”; in series [3] (Sternum, melfalan 6 mg/kg) it was “+”. For the same compound, the “effect on the tumor infiltration (in words)” value in series [3] is “cannot be seen”. In addition, the “activity against the multiple myeloma (in words)” value in the series with multiple myeloma is on record as “exploits activity against the multiple myeloma”. In addition, the “cure of the secondary bone tumor (in words)” value in the series on multiple myeloma was “not able to cure the secondary bone tumor”.
